The values below come from ChEMBL document CHEMBL4028801, “A multifactorial approach to hepatobiliary transporter assessment enables improved therapeutic compound development” (Toxicol Sci, 2013).

The structures appear in SMILES notation. Where a name gives a salt, the structure may show the parent alone.

The target in experiment [1] is ATP-binding cassette sub-family C member 2 (Homo sapiens, UniProt Q92887). The experiment in a line: Inhibition of human MRP2 overexpressed in Sf9 cell membrane vesicles assessed as uptake of [3H]-estradiol-17beta-D-glucuronide in presence of ATP and GSH measured after 20 mins by membrane vesicle transport assay.
Chain of ATP-binding cassette sub-family C member 2 (Q92887 whole entry): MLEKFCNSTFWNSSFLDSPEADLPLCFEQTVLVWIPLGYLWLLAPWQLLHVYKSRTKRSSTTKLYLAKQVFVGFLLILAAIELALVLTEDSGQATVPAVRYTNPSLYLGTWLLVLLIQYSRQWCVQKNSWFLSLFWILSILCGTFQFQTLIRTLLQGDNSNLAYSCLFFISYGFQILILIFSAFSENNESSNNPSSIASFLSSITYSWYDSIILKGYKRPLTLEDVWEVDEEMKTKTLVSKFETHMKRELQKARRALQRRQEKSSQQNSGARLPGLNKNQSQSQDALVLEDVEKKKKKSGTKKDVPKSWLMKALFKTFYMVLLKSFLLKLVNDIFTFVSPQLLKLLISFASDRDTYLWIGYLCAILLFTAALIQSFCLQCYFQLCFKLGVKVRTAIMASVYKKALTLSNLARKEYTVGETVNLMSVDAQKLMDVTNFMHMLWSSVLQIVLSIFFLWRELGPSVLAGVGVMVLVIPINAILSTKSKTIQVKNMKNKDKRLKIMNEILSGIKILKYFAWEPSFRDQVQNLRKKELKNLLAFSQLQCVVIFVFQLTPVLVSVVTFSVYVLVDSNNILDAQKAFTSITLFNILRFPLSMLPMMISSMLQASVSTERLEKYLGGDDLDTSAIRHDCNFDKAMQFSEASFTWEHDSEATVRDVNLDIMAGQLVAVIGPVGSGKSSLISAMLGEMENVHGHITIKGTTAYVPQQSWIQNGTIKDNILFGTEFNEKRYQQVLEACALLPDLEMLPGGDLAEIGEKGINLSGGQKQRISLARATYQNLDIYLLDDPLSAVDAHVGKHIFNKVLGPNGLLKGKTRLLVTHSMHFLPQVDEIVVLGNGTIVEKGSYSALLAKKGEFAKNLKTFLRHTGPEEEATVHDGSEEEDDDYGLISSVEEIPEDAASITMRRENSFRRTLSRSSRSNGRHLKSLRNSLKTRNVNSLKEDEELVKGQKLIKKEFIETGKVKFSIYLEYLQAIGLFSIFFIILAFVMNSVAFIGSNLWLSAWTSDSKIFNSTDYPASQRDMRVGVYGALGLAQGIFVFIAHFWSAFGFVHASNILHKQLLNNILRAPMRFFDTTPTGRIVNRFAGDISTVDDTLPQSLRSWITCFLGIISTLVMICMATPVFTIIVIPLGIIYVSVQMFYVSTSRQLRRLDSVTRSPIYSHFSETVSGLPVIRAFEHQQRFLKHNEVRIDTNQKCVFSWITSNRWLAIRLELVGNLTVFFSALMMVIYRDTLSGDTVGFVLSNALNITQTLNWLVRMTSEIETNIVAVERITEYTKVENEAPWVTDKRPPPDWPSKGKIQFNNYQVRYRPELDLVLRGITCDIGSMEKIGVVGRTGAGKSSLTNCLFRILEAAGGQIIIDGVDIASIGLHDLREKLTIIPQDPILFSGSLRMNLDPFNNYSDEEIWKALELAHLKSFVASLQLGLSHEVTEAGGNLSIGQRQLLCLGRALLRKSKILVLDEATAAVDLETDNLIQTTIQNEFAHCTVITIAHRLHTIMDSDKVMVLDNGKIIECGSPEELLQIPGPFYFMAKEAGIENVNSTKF
The target in experiment [2] is T1, ATP-binding cassette sub-family C member 4 (Homo sapiens, UniProt O15439).
T1 sequence (O15439 whole entry): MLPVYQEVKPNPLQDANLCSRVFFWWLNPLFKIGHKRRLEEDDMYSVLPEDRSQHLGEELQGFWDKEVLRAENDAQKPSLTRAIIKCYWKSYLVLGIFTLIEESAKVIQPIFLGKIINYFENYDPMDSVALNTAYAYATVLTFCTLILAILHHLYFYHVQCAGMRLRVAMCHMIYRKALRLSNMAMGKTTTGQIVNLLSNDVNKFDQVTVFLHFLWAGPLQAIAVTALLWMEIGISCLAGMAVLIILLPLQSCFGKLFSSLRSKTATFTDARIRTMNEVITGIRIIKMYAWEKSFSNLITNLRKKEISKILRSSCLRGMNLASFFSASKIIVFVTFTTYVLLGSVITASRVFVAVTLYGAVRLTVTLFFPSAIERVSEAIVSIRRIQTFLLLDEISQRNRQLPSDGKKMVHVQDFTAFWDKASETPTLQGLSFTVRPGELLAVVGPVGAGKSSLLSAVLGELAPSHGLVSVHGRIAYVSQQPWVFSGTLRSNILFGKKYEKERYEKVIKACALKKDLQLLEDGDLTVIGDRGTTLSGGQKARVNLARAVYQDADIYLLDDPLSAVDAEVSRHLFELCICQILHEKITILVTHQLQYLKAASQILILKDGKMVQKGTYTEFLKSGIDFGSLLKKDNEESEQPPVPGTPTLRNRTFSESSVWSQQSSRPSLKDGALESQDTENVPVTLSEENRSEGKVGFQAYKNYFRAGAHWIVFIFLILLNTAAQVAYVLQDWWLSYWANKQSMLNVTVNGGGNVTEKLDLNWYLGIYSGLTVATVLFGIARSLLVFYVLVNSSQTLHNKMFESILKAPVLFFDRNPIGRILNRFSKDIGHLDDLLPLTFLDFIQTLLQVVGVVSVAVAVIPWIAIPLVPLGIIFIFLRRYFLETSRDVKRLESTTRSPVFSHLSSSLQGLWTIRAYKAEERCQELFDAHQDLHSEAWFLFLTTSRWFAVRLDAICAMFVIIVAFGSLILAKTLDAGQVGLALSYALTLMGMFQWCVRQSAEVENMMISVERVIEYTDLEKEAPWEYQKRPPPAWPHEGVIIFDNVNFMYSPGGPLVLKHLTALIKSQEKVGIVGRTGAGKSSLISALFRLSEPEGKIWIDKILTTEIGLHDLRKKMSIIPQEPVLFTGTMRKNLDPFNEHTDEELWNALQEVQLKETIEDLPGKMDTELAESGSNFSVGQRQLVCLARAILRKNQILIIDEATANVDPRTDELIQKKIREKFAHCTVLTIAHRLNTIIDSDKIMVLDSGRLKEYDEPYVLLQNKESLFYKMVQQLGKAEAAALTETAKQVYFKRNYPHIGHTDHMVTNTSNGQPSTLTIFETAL
The experiment in a line: Inhibition of human MRP4 overexpressed in Sf9 cell membrane vesicles assessed as uptake of [3H]-estradiol-17beta-D-glucuronide in presence of ATP and GSH measured after 20 mins by membrane vesicle transport assay. It is filed as ADME, cell-based.

Experiment [3] deals with ATP-binding cassette sub-family C member 3 (Homo sapiens, UniProt O15438). The experiment in a line: Inhibition of human MRP3 overexpressed in Sf9 insect cell membrane vesicles assessed as uptake of [3H]-estradiol-17beta-D-glucuronide in presence of ATP and GSH measured after 10 mins by membrane vesicle transport assay. It is filed as ADME, cell-based.
Chain of ATP-binding cassette sub-family C member 3 (O15438 whole entry): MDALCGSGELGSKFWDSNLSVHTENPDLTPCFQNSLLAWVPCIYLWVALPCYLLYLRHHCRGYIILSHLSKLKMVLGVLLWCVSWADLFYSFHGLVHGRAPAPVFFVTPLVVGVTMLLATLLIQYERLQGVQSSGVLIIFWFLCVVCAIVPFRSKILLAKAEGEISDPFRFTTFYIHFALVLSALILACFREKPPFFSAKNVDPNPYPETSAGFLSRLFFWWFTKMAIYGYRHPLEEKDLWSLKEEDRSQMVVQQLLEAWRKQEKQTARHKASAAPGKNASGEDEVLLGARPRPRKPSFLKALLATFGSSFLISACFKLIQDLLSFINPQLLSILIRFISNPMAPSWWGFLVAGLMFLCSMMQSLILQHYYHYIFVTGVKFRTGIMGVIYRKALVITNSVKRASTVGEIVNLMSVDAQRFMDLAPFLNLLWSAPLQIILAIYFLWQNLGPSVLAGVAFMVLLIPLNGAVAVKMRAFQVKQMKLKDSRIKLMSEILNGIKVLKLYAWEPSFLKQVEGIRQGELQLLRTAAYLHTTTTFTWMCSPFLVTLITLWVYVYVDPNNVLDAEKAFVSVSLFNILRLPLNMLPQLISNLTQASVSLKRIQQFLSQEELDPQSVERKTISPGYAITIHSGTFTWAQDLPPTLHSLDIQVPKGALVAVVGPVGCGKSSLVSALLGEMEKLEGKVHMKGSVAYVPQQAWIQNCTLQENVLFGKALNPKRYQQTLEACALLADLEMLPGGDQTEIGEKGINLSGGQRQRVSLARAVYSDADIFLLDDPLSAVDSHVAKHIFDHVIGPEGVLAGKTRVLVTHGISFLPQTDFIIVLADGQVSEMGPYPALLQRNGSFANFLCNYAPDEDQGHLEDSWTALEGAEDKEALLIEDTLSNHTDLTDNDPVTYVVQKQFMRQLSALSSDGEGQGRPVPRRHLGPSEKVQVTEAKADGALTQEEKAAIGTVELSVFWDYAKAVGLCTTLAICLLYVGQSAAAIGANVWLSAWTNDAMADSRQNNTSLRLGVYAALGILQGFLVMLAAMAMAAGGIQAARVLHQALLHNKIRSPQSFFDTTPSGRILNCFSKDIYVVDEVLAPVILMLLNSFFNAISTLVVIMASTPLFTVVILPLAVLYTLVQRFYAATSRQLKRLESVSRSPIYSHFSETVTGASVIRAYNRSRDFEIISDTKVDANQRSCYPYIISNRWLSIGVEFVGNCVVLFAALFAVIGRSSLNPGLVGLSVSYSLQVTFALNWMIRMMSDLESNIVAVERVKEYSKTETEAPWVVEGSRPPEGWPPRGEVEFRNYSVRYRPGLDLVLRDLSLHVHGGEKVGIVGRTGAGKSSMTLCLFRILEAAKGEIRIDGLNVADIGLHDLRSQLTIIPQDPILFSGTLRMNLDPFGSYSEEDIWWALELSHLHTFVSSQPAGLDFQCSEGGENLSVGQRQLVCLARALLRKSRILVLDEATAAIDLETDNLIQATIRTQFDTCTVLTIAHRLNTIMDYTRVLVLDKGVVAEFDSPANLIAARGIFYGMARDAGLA

As to `Nc1cc(N2CCCCC2)nc(N)[n+]1[O-]` [MINOXIDIL], the IC50 in experiment [1], in experiment [2] and in experiment [3] was more than 133 µM in each case.
In the case of `CC1(COc2ccc(CC3SC(=O)NC3=O)cc2)CCCCC1` (configuration not stated) [CIGLITAZONE], the IC50 in experiment [1], in experiment [2] and in experiment [3] was more than 133 µM each time.
For `CCN(CC)C(=S)SSC(=S)N(CC)CC`, the IC50 in experiment [1], in experiment [2] and in experiment [3] was more than 133 µM each time.
With `Nc1ccn([C@@H]2CS[C@H](CO)O2)c(=O)n1` [LAMIVUDINE], the IC50 in experiment [1], in experiment [2] and in experiment [3] was more than 133 µM each time.
As for `CNCCC(Oc1ccc(C(F)(F)F)cc1)c1ccccc1` (configuration not stated) [FLUOXETINE], the 50% inhibitory concentration (IC50) in experiment [1], in experiment [2] and in experiment [3] was more than 133 µM throughout.
Consider `CC(C)[C@@H]1NC(=O)[C@H](C)OC(=O)[C@@H](C(C)C)NC(=O)[C@@H](C(C)C)OC(=O)[C@H](C(C)C)NC(=O)[C@H](C)OC(=O)[C@@H](C(C)C)NC(=O)[C@@H](C(C)C)OC(=O)[C@H](C(C)C)NC(=O)[C@H](C)OC(=O)[C@@H](C(C)C)NC(=O)[C@@H](C(C)C)OC1=O` [VALINOMYCIN], for which the IC50 in experiment [1], in experiment [2] and in experiment [3] was more than 133 µM in each case.
Turning to `CCN(CC)CC(=O)Nc1c(C)cccc1C` [LIDOCAINE], the IC50 in experiment [1], in experiment [2] and in experiment [3] was more than 133 µM in each case.
In the case of `NS(=O)(=O)c1cc(C(=O)O)c(NCc2ccco2)cc1Cl` [FUROSEMIDE], the IC50 in experiment [1], in experiment [2] and in experiment [3] was more than 133 µM in each case.
For `COc1ccc([C@@H]2Sc3ccccc3N(CCN(C)C)C(=O)[C@@H]2OC(C)=O)cc1` [DILTIAZEM], the IC50 in experiment [1], in experiment [2] and in experiment [3] was more than 133 µM each time.
`CN(C)[C@@H]1C(O)=C(C(N)=O)C(=O)[C@@]2(O)C(O)=C3C(=O)c4c(O)cccc4[C@@](C)(O)[C@H]3C[C@@H]12` [TETRACYCLINE]: the IC50 in experiment [1], in experiment [2] and in experiment [3] was more than 133 µM throughout.
Consider `Cc1nc2n(c(=O)c1CCN1CCC(c3noc4cc(F)ccc34)CC1)CCCC2` [RISPERIDONE], for which the IC50 in experiment [1], in experiment [2] and in experiment [3] was more than 133 µM each time.
As to `Clc1ccccc1CN1CCc2sccc2C1` [TICLOPIDINE HYDROCHLORIDE], the IC50 in experiment [1], in experiment [2] and in experiment [3] was more than 133 µM in each case.
For `CC[C@@H](CO)NCCN[C@@H](CC)CO` [ETHAMBUTOL HYDROCHLORIDE], the half-inhibitory concentration (IC50) in experiment [1] was more than 133 µM; in experiment [2], more than 133 µM; in experiment [3], 88.2 µM.
For `O=C(N[C@H](CO)[C@H](O)c1ccc([N+](=O)[O-])cc1)C(Cl)Cl` [CHLORAMPHENICOL], the IC50 in experiment [2] and in experiment [3] was more than 133 µM throughout.
On to `O=C(O)c1cc(/N=N/c2ccc(S(=O)(=O)Nc3ccccn3)cc2)ccc1O` [SULFASALAZINE], for which the IC50 in experiment [2] amounted to 1.5 µM; in experiment [3] it was 14.6 µM.
`COc1ccc(CCN(C)CCCC(C#N)(c2ccc(OC)c(OC)c2)C(C)C)cc1OC` (configuration not stated): the IC50 in experiment [1] and in experiment [3] was more than 133 µM each time.
As for `O=C(CCCN1CCC(O)(c2ccc(Cl)cc2)CC1)c1ccc(F)cc1` [HALOPERIDOL], the IC50 in experiment [2] and in experiment [3] was more than 133 µM each time.
As for `CO[C@@]1(NC(=O)C2SC(=C(C(N)=O)C(=O)O)S2)C(=O)N2C(C(=O)O)=C(CSc3nnnn3C)CS[C@@H]21` (some centres not stated) [CEFOTETAN], the IC50 in experiment [3] came out at 79 µM.
For `C[C@]12CC[C@@H]3c4ccc(O)cc4CC[C@H]3[C@@H]1CC[C@@H]2O` [ESTRADIOL], the IC50 in experiment [2] and in experiment [3] was more than 133 µM each time.
For the compound `O=C(O)CCc1nc(-c2ccccc2)c(-c2ccccc2)o1` [OXAPROZIN], the IC50 in experiment [1] and in experiment [3] was more than 133 µM throughout.

By IC50 is commonly meant the concentration that inhibits the measured activity by half.
